{"source": "patent EP0357495A2", "about": "“3'Azido-3'-deoxythymidine (AZT) derivatives active against the AIDS virus” (IRE-CELLTARG S.A., priority 1988, dated 1990)", "key": {"[1]": {"assay": "in vivo toxicity, intraperitoneal, 5-day-old NMRI mice", "set-up": "species or system souriceaux NMRI", "settings": "AZT-5′hémisuccinyl, i.p.", "method": "L'AZT et son dérivé 5′hémisuccinyl ont été administrés par voie infra-péritonéale à de souriceaux NMRI âgés de 5 jours (100 µl/g de poids corporel). Les animaux ont été contrôlés tous les jours selon 2 critères : survie et poids pendant 25 jours.\nLes résultats sont repris au tableau 9. Les souriceaux traités n'ont pas montre de différence significative dans la prise de poids par rapport aux contrôles. Tableau 9"}, "[2]": {"test_system": "cellules MT4", "assay": "cytotoxicity on non-infected MT4 cells (MTT method)", "format": "cell-based", "method": "Les produits (AZT, AZT-5′ hémisuccinyl et AZT 5′-leucyl) à différentes concentrations ont été mis en présence de cellules MT4 (4 X 10⁴ cellules par puits de microtray) infectées ou non avec 100 CCID₅₀ de virus HIV-1 (souche HTLV-IIIB). La CCID₅₀ représente la quantité de virus à rajouter pour obtenir une infection de 50 % des cellules (dose infectieuse de cellules en culture 50).\nAprès cinq jours d'incubation à 37°C, le nombre de cellules vivantes a été déterminé par la méthode au MTT, basée sur la réduction par les cellules vivantes du 3′-(4, 5-diméthylthiazol-2-yl)-2,5-diphényltétrazoliumbromide, jaune, en formazan, bleu. L'activité antivirale et la cytotoxicité sont exprimées sous forme de ED₅₀ et de CD₅₀. La CD₅₀ représente la dose qui tue 50 % des cellules non infectées et la ED₅₀ représente la dose qui protège 50 % des cellules de l'infection virale.\nEn effet l'AZT entre en compétition avec la thymidine au niveau des enzymes de phosphorylation qui vont le transformer en AZT triphosphate (AZT TP) qui est la forme active du produit. Un excès de thymidine réduit donc très fortement l'activité de l'AZT, ce qui se traduit par une ED₅₀ plus élevée. Par conséquent, si le dérivé de l'AZT doit son activité à la libération d'AZT qui à son tour est phosphorylé en AZT TP, un excès de thymidine aura également pour effet d'élever la ED₅₀ du dérivé. La thymidine étant cytotoxique à la concentration utilisée, il est nécessaire de rajouter de la 2′déoxycytidine pour empêcher cette toxicité.\nLes protocoles expérimentaux sont ceux décrits à l'exemple 9 3.1) et 9 3)."}, "[3]": {"test_system": "virus MSV Moloney sarcoma virus", "assay": "in vivo activity in MSV-infected NMRI mice (survival, tumour appearance)", "set-up": "species or system souris NMRI", "method": "L'AZT et ses dérivés selon l'invention ont été testés in vivo chez la souris NMRI (souriceaux de 2 jours) infectée par le virus MSV Moloney sarcoma virus). La drogue est adminitrée i.p. pendant 5 jours dans un volume de 25 µl/g de poids corporel. Le virus est inoculé dans la cuisse gauche de l'animal deux heures après la première administration de drogue. Les animaux sont contrôlés tous les jours selon trois critères : survie, apparition de la tumeur et poids (toxicité) pendant 50 jours. Les résultats sont repris au tableau 7 et dans les figures 8 à 11. [formula]\nOn entend par temps médian de survie le temps où la moitié des souris sont encore vivantes. [formula] Tableau 7"}, "[4]": {"settings": "AZT-5′ hémisuccinyl 6.8 mg/kg/jour i.p. 5 days"}, "[5]": {"settings": "AZT-5′ hémisuccinyl 34 mg/kg/jour i.p. 5 days"}, "[6]": {"settings": "AZT-5′ hémisuccinyl 170 mg/kg/jour i.p. 5 days"}}, "data": [{"smiles": "Cc1cn([C@H]2C[C@H](N=[N+]=[N-])[C@@H](COC(=O)CCC(=O)O)O2)c(=O)[nH]c1=O", "note": "[AZT 5′hémisuccinyl, 5′-hémisuccinyl-3′-azido-3′-déoxythymidine]", "values": [{"measurement": "Survivants au jour 25", "setting": "[1]; dose 1 g/kg poids corporel (équivalent AZT 0.73)", "value": 100, "unit": "%"}, {"measurement": "Survivants au jour 25", "setting": "[1]; dose 2 g/kg poids corporel (équivalent AZT 1.46)", "value": 100, "unit": "%"}, {"measurement": "Survivants au jour 25", "setting": "[1]; dose 3 g/kg poids corporel (équivalent AZT 2.2)", "value": 50, "unit": "%"}, {"measurement": "mortalité/jour", "setting": "[1]; dose 3 g/kg poids corporel (équivalent AZT 2.2), au jour 1", "value": "(50 % au jour 1)"}, {"measurement": "toxicité (compared with AZT, in words)", "setting": "[2]; comparison with AZT", "value": "considérablement inférieure"}, {"measurement": "CD₅₀", "setting": "[2]; tableau 2, non-infected MT4 cells, 5 days at 37°C, dose that kills 50 % of cells", "value": 196, "unit": "µM"}, {"measurement": "CD₅₀", "setting": "[2]; tableau 4, MT-4, with thymidine (250µM) + 2′déoxy-cytidine (500 µM)", "value": 362, "unit": "µM"}, {"measurement": "CD₅₀", "setting": "[2]; tableau 4, MT-4, without thymidine / 2′déoxycytidine", "value": 295, "unit": "µM"}, {"measurement": "% ILS", "setting": "[3]; [4]", "value": 20.2, "unit": "%"}, {"measurement": "% ITL", "setting": "[3]; [4]", "value": 52.4, "unit": "%"}, {"measurement": "Temps moyen d'apparition de la tumeur", "setting": "[3]; [4]", "value": 7.3, "unit": "jours"}, {"measurement": "Temps moyen de survie", "setting": "[3]; [4]", "value": 11.5, "unit": "jours"}, {"measurement": "Temps médian d'apparition de la tumeur", "setting": "[3]; [4]", "value": 6.8, "unit": "jours"}, {"measurement": "Temps médian de survie", "setting": "[3]; [4]", "value": 11.0, "unit": "jours"}, {"measurement": "% ILS", "setting": "[3]; [5]", "value": ">446", "unit": "%"}, {"measurement": "% ITL", "setting": "[3]; [5]", "value": 145, "unit": "%"}, {"measurement": "Temps moyen d'apparition de la tumeur", "setting": "[3]; [5]", "value": ">25.5", "unit": "jours"}, {"measurement": "Temps moyen de survie", "setting": "[3]; [5]", "value": ">41", "unit": "jours"}, {"measurement": "Temps médian d'apparition de la tumeur", "setting": "[3]; [5]", "value": 11, "unit": "jours"}, {"measurement": "Temps médian de survie", "setting": "[3]; [5]", "value": ">50", "unit": "jours"}, {"measurement": "% ILS", "setting": "[3]; [6]", "value": 42.1, "unit": "%"}, {"measurement": "% ITL", "setting": "[3]; [6]", "value": 257, "unit": "%"}, {"measurement": "Temps moyen d'apparition de la tumeur", "setting": "[3]; [6]", "value": ">23", "unit": "jours"}, {"measurement": "Temps moyen de survie", "setting": "[3]; [6]", "value": ">22.7", "unit": "jours"}, {"measurement": "Temps médian d'apparition de la tumeur", "setting": "[3]; [6]", "value": 16, "unit": "jours"}, {"measurement": "Temps médian de survie", "setting": "[3]; [6]", "value": 13, "unit": "jours"}]}]}
